Measured values reported in US9302999B2, “Substituted triazoles as herbicides” (E. I. DU PONT DE NEMOURS AND COMPANY, priority 2012, dated 2016).

Experiments:
Assay type in all cases: in vivo
[1] = system: lambsquarters (Chenopodium album); test: Test F pre-/postemergence: lambsquarters; details: Preemergence
Text: (§1) Seeds of plant species selected from corn (Zea mays), soybean (Glycine max), velvetleaf (Abutilon theophrasti), lambsquarters (Chenopodium album), poinsettia, wild (wild poinsettia, Euphorbia heterophylla), pigweed, palmer (palmer pigweed, Amaranthus palmeri), waterhemp (common waterhemp, Amaranthus rudis), surinam grass (Brachiaria decumbens), crabgrass, Brazil (Brazilian crabgrass, Digitaria horizontalis), panicum, fall (fall panicum Panicum dichotomiflorum), crabgrass, large (large crabgrass, Digitaria sanguinalis), foxtail, giant (giant foxtail, Setaria faberii), foxtail, green (green foxtail Setaria viridis), goosegrass (Eleusine indica), ragweed (common ragweed, Ambrosia elatior), barnyardgrass (Echinochloa crus-galli), sandbur (southern sandbur, Cenchrus echinatus), arrowleaf sida (Sida rhombifolia), ryegrass, Italian (Italian ryegrass, Lolium multiflorum), dayflower, VA (Virginia (VA) dayflower, Commelina virginica), field bindweed (Convolvulus arvensis), cocklebur (common cocklebur, Xanthium strumarium), morningglory (Ipomoea coccinea), nightshade (eastern black nightshade, Solanum ptycanthum), kochia (Kochia scoparia), nutsedge, yellow (yellow nutsedge, Cyperus esculentus), johnsongrass (Sorghum halepense), smartweed (ladysthumb smartweed, Polygonum persicaria), and beggarticks (hairy beggarticks, Bidens pilosa), were planted into a silt loam soil and treated preemergence with test chemicals formulated in a non-phytotoxic solvent mixture which included a surfactant. At the same time, plants selected from these crop and weed species and also pigweed (Amaranthus retroflexus), waterhemp_RES1 (ALS/Triazine resistant common waterhemp, Amaranthus rudis) and waterhemp_RES2 (ALS/HPPD resistant common waterhemp, Amaranthus rudis) were planted in pots containing a planting medium comprising spaghnum peat moss, vermiculite, wetting agent and starter nutrients treated with postemergence applications of some of the test chemicals formulated in the same manner. Plants ranged in height from 2 to 18 cm for postemergence treatments (1- to 4-leaf stage).
(§2) Treated plants and controls were maintained in a greenhouse for 14 to 21 days, after which time all species were compared to controls and visually evaluated. Plant response ratings, summarized in Table E, are based on a scale of 0 to 100 where 0 is no effect and 100 is complete control. A dash (-) response means no test result.

[2] = system: waterhemp (common waterhemp, Amaranthus rudis); test: Test F pre-/postemergence: waterhemp; details: Preemergence
Text: as §1, §2

[3] = system: foxtail, giant (giant foxtail, Setaria faberii); test: Test F pre-/postemergence: foxtail, giant; details: Preemergence
Text: as §1, §2

[4] = system: johnsongrass (Sorghum halepense); test: Test F pre-/postemergence: johnsongrass; details: Preemergence
Text: as §1, §2

[5] = system: blackgrass (Alopecurus myosuroides); test: Test D pre-/postemergence: blackgrass
How it was run: (§3)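 Visual ratings from 0 (no effect) to 100 (complete control) were made 14–21 days after treatment, relative to controls. Applications were preemergence to seeds in silt loam, or postemergence to 2–18 cm (1–4 leaf) plants in peat-based medium. Compounds were formulated in a surfactant-containing non-phytotoxic solvent.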

[6] = system: canarygrass (Phalaris minor); test: Test D pre-/postemergence: canarygrass
Text: Seeds of plant species selected from bluegrass (annual bluegrass, Poa annua), blackgrass (Alopecurus myosuroides), canarygrass (Phalaris minor), chickweed (common chickweed, Stellaria media), galium (catchweed bedstraw, Galium aparine), bromegrass, downy (downy bromegrass, Bromus tectorum), field poppy (Papaver rhoeas), field violet (Viola arvensis), foxtail, green (green foxtail, Setaria viridis), deadnettle (henbit deadnettle, Lamium amplexicaule), ryegrass, Italian (Italian ryegrass, Lolium multiflorum), kochia (Kochia scoparia), lambsquarters (Chenopodium album), oilseed rape (Brassica napus), pigweed (Amaranthus retroflexus), Russian thistle (Salsola iberica), chamomile (scentless chamomile, Matricaria inodora), speedwell (bird's-eye speedwell, Veronica persica), barley, spring (spring barley, Hordeum vulgare), wheat, spring (spring wheat, Triticum aestivum), buckwheat, wild (wild buckwheat, Polygonum convolvulus), mustard, wild (wild mustard, Sinapis arvensis), oat, wild (wild oat, Avena fatua), radish, wild (wild radish, Raphanus raphanistrum), windgrass (Apera spica-venti), barley, winter (winter barley, Hordeum vulgare), and wheat, winter (winter wheat, Triticum aestivum) were planted into a silt loam soil and treated preemergence with test chemicals formulated in a non-phytotoxic solvent mixture which included a surfactant. At the same time, these same crop and weed species were planted in pots containing the planting medium comprising spaghnum peat moss, vermiculite, wetting agent and starter nutrients and treated with postemergence applications of the test chemicals formulated in the same manner. Plants ranged in height from 2 to 18 cm (1- to 4-leaf stage).
as §2, with “controlled growth environment” for “greenhouse”, “days” for “days,”, “D,” for “E,”

[7] = system: deadnettle (henbit deadnettle, Lamium amplexicaule); test: Test D pre-/postemergence: deadnettle
How it was run: as §3

[8] = system: radish, wild (wild radish, Raphanus raphanistrum); test: Test D pre-/postemergence: radish, wild
How it was run: as §3

[9] = system: barley, winter (winter barley, Hordeum vulgare); test: Test D pre-/postemergence: barley, winter
How it was run: as §3

[10] = 16 g ai/ha, scale 0 to 100, 0 no effect, 100 complete control
[11] = 31 g ai/ha, scale 0 to 100, 0 no effect, 100 complete control
[12] = Postemergence, 31 g ai/ha, scale 0 to 100 (0 no effect, 100 complete control)
[13] = Postemergence, 62 g ai/ha, scale 0 to 100 (0 no effect, 100 complete control)
[14] = Postemergence, 125 g ai/ha, scale 0 to 100, 0 no effect, 100 complete control
[15] = Postemergence, 16 g ai/ha, scale 0 to 100
[16] = Preemergence, 16 g ai/ha, scale 0 to 100, 0 no effect, 100 complete control
[17] = Preemergence, 31 g ai/ha, scale 0 to 100, 0 no effect, 100 complete control
[18] = Preemergence, 62 g ai/ha, scale 0 to 100
[19] = Preemergence, 125 g ai/ha, scale 0 to 100

COc1nn(-c2cccc(F)c2)nc1Cc1ccnc(C(F)(F)F)c1 [Compound 139]
Plant response rating, Lambsquarters [1, 10]: 0 | Plant response rating, Lambsquarters [1, 11]: 20 | Plant response rating, Lambsquarters ([1]; 62 g ai/ha, scale 0 to 100): 65 | Plant response rating, Lambsquarters ([1]; 125 g ai/ha, scale 0 to 100): 90 | Plant response rating, Lambsquarters ([1]; 250 g ai/ha, scale 0 to 100): 98 | Plant response rating, Waterhemp [2, 10]: 70 | Plant response rating, Waterhemp [2, 11]: 100 | Plant response rating, Waterhemp ([2]; 125 g ai/ha, scale 0 to 100): 100 | Plant response rating, Waterhemp ([2]; 250 g ai/ha, scale 0 to 100): 100 | Plant response rating, Foxtail, Giant [3, 10]: 0 | Plant response rating, Foxtail, Giant [3, 11]: 40 | Plant response rating, Foxtail, Giant ([3]; 62 g ai/ha, scale 0 to 100): 85 | Plant response rating, Foxtail, Giant ([3]; 125 g ai/ha, scale 0 to 100): 98 | Plant response rating, Foxtail, Giant ([3]; 250 g ai/ha, scale 0 to 100): 100 | Plant response rating, Johnsongrass [4, 10]: 0 | Plant response rating, Johnsongrass [4, 11]: 75 | Plant response rating, Johnsongrass ([4]; 62 g ai/ha, scale 0 to 100): 90 | Plant response rating, Johnsongrass ([4]; 125 g ai/ha, scale 0 to 100): 98 | Plant response rating, Johnsongrass ([4]; 250 g ai/ha, scale 0 to 100): 100

Cc1nn(-c2ccc(F)cc2F)nc1Oc1ccnc(C(F)(F)F)c1 [Compound 146]
Plant response rating, Lambsquarters [1, 10]: 0 | Plant response rating, Lambsquarters [1, 11]: 0 | Plant response rating, Lambsquarters ([1]; 62 g ai/ha, scale 0 to 100): 40 | Plant response rating, Lambsquarters ([1]; 125 g ai/ha, scale 0 to 100): 98 | Plant response rating, Lambsquarters ([1]; 250 g ai/ha, scale 0 to 100): 98 | Plant response rating, Waterhemp [2, 10]: 25 | Plant response rating, Waterhemp [2, 11]: 75 | Plant response rating, Waterhemp ([2]; 125 g ai/ha, scale 0 to 100): 100 | Plant response rating, Waterhemp ([2]; 250 g ai/ha, scale 0 to 100): 100 | Plant response rating, Foxtail, Giant [3, 10]: 20 | Plant response rating, Foxtail, Giant [3, 11]: 20 | Plant response rating, Foxtail, Giant ([3]; 62 g ai/ha, scale 0 to 100): 90 | Plant response rating, Foxtail, Giant ([3]; 125 g ai/ha, scale 0 to 100): 98 | Plant response rating, Foxtail, Giant ([3]; 250 g ai/ha, scale 0 to 100): 100 | Plant response rating, Johnsongrass [4, 10]: 0 | Plant response rating, Johnsongrass [4, 11]: 50 | Plant response rating, Johnsongrass ([4]; 62 g ai/ha, scale 0 to 100): 60 | Plant response rating, Johnsongrass ([4]; 125 g ai/ha, scale 0 to 100): 70 | Plant response rating, Johnsongrass ([4]; 250 g ai/ha, scale 0 to 100): 100

Cc1nn(-c2ccc(F)c(C(F)(F)F)c2)nc1Cc1ccnc(C(F)(F)F)c1 [Compound 156]
Plant response rating: Blackgrass [5, 12]: 15 | Plant response rating: Blackgrass [5, 13]: 35 | Plant response rating: Blackgrass [5, 14]: 60 | Plant response rating, Blackgrass [5, 15]: 10 | Plant response rating, Blackgrass [5, 16]: 0 | Plant response rating, Blackgrass [5, 17]: 5 | Plant response rating, Blackgrass [5, 18]: 15 | Plant response rating, Blackgrass [5, 19]: 70 | Plant response rating: Canarygrass [6, 12]: 30 | Plant response rating: Canarygrass [6, 13]: 65 | Plant response rating: Canarygrass [6, 14]: 80 | Plant response rating, Canarygrass [6, 15]: 15 | Plant response rating, Canarygrass [6, 16]: 15 | Plant response rating, Canarygrass [6, 17]: 70 | Plant response rating, Canarygrass [6, 18]: 100 | Plant response rating, Canarygrass [6, 19]: 100 | Plant response rating: Deadnettle [7, 12]: 85 | Plant response rating: Deadnettle [7, 13]: 100 | Plant response rating: Deadnettle [7, 14]: 100 | Plant response rating, Deadnettle [7, 15]: 70 | Plant response rating, Deadnettle [7, 16]: 5 | Plant response rating, Deadnettle [7, 17]: 15 | Plant response rating, Deadnettle [7, 18]: 100 | Plant response rating, Deadnettle [7, 19]: 100 | Plant response rating: Radish, Wild [8, 12]: 85 | Plant response rating: Radish, Wild [8, 13]: 100 | Plant response rating: Radish, Wild [8, 14]: 100 | Plant response rating, Radish, Wild [8, 15]: 65 | Plant response rating, Radish, Wild [8, 16]: 5 | Plant response rating, Radish, Wild [8, 17]: 10 | Plant response rating, Radish, Wild [8, 18]: 100 | Plant response rating, Radish, Wild [8, 19]: 100 | Plant response rating: Barley, Winter [9, 12]: 20 | Plant response rating: Barley, Winter [9, 13]: 25 | Plant response rating: Barley, Winter [9, 14]: 30 | Plant response rating, Barley, Winter [9, 15]: 10 | Plant response rating, Barley, Winter [9, 16]: 5 | Plant response rating, Barley, Winter [9, 17]: 5 | Plant response rating, Barley, Winter [9, 18]: 10 | Plant response rating, Barley, Winter [9, 19]: 15
